Patent publication US20250230171A1 (MOMA Therapeutics, Inc., priority 2023, published 2025)
Where two headings read alike, the source gives them in different places.

What was measured:
DLD1 WT cells = assay: 7-day cell viability assay (CellTiter-Glo), DLD1 parental (WT); format: cell-based, human; conditions: n=2
[1] = target: biotinylated Avi-POLθ[2-894] (Homo sapiens (Human), UniProt O75417); assay: POLθ ATPase assay (ADP-Glo); conditions: n=2, read-out: Biochemical ATPase ADPGlo IC50
DLD1 BRCA2 (−/−) cells = assay: 7-day cell viability assay (CellTiter-Glo), DLD1 BRCA2 (−/−); format: cell-based, human; conditions: n=2, read-out: Viability IC50 (uM) DLD1 BRCA2 null
Outline: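 7-day growth assay in DLD1 cells with or without BRCA2; seeding densities chosen to keep log-linear growth. Compound: 10 uM top, 3-fold, 9 points. Endpoint: CTG ATP luminescence at RT.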

[2] = Homo sapiens, DLD-1, 168 h, 7-day viability
[3] = Homo sapiens, DLD-1, 168 h, 7-day CellTiter-Glo

Sequence of biotinylated Avi-POLθ[2-894] (O75417 2-894): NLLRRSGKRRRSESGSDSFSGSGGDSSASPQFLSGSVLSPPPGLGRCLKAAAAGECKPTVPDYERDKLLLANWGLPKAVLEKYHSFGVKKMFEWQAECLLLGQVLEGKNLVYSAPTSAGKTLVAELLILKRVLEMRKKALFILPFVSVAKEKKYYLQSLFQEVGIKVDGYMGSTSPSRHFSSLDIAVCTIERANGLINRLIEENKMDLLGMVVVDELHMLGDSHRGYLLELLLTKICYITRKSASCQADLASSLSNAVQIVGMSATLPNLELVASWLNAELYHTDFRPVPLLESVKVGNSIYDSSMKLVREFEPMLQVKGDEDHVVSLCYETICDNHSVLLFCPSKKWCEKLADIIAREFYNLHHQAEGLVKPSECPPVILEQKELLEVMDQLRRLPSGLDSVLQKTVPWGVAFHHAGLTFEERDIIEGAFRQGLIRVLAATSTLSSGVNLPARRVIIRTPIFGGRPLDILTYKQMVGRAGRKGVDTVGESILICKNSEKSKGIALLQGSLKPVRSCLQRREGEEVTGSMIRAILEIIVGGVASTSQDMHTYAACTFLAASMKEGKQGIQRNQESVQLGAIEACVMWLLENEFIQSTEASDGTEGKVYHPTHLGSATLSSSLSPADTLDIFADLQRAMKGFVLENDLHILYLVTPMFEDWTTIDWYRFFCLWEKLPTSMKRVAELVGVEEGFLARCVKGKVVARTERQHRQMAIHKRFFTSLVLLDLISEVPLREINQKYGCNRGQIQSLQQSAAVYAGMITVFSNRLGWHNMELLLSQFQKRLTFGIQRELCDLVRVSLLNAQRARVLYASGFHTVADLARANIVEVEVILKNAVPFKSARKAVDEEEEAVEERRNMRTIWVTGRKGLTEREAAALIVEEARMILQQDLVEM

| IC50 [1] | IC50 (DLD1 BRCA2 (−/−) cells; [2]) | IC50 ([1]; POLθ ATPase, ADP-Glo) | IC50 (DLD1 BRCA2 (−/−) cells; [3]) | Molecule | IC50 (DLD1 WT cells; [2]) | IC50 (DLD1 WT cells; [3]) | IC50 (DLD1 WT cells; 7-day viability) | IC50 (DLD1 BRCA2 (−/−) cells; 7-day viability) |
| --- | --- | --- | --- | --- | --- | --- | --- | --- |
| 1 to 15 nM | 0.001 to 0.1 µM |  |  | COc1cnc(Cl)cc1-c1cc(C)ncc1C(=O)Nc1nc2c(s1)CN(C(=O)c1ncc(Cl)cc1OC)C2 | ≥ 10 µM |  |  |  |
| 1 to 15 nM | 0.001 to 0.1 µM |  |  | COc1cc(C(=O)N2Cc3nc(NC(=O)c4cnc(C)cc4-c4cc(Cl)ncc4OC)sc3C2)n(C)n1 [Example 90, 2′-chloro-5′-methoxy-N-(5-(3-methoxy-1-methyl-1H-pyrazole-5-carbonyl)-5,6-dihydro-4H-pyrrolo[3,4-d]thiazol-2-yl)-6-methyl-[4,4′-bipyridine]-3-carboxamide] | ≥ 10 µM |  |  |  |
|  |  | 1 to 15 nM | 0.001 to 0.1 µM | COc1ccc(C(=O)N2Cc3nc(NC(=O)c4cnc(C)cc4-c4cc(Cl)ncc4OC)sc3C2)c(OC)n1 |  | 5 to 10 µM |  |  |
| 1 to 15 nM | 0.001 to 0.1 µM |  |  | COc1cnc(Cl)cc1-c1cc(C)ncc1C(=O)Nc1nc2c(s1)CN(C(=O)c1cc(C)nn1C)C2 [Example 49, 2′-chloro-N-(5-(1,3-dimethyl-1H-pyrazole-5-carbonyl)-5,6-dihydro-4H-pyrrolo[3,4-d]thiazol-2-yl)-5′-methoxy-6-methyl-[4,4′-bipyridine]-3-carboxamide] | ≥ 10 µM |  |  |  |
|  |  | 1 to 15 nM | 0.001 to 0.1 µM | COc1cnc(Cl)cc1-c1cc(C)ncc1C(=O)Nc1nc2c(s1)CN(C(=O)c1nc(C(F)F)ccc1Cl)C2 |  | ≥ 10 µM |  |  |
| 1 to 15 nM | 0.001 to 0.1 µM |  |  | COc1cnc(Cl)cc1-c1cc(C)ncc1C(=O)Nc1nc2c(s1)CN(C(=O)c1c(Cl)cnn1C(C)C)C2 | ≥ 10 µM |  |  |  |
| 1 to 15 nM | 0.25 to 0.5 µM |  |  | COc1cnc(Cl)cc1-c1cc(C)ncc1C(=O)Nc1nc2c(s1)CN(C(=O)c1ccn(C)n1)C2 [Example 197] | ≥ 10 µM |  |  |  |
|  |  | 1 to 15 nM | 0.001 to 0.1 µM | COc1nccc(C(=O)N2Cc3nc(NC(=O)c4cnc(C)cc4-c4cc(Cl)ncc4OC)sc3C2)n1 |  | ≥ 10 µM |  |  |
| 1 to 15 nM | 0.001 to 0.1 µM |  |  | COc1cnc(Cl)cc1-c1cc(C)ncc1C(=O)Nc1nc2c(s1)CN(C(=O)c1cnn3c1CCC3)C2 [Example 4, 2′-chloro-N-(5-(5,6-dihydro-4H-pyrrolo[1,2-b]pyrazole-3-carbonyl)-5,6-dihydro-4H-pyrrolo[3,4-d]thiazol-2-yl)-5′-methoxy-6-methyl-[4,4′-bipyridine]-3-carboxamide] | 0.001 to 0.5 µM |  |  |  |
| 1 to 15 nM | 0.001 to 0.1 µM |  |  | COc1cnc(Cl)cc1-c1cc(C)ncc1C(=O)Nc1nc2c(s1)CN(C(=O)c1c(C(F)F)cnn1C)C2 (racemic) | ≥ 10 µM |  |  |  |
| 1 to 15 nM | 0.001 to 0.1 µM |  |  | COc1cnc(Cl)cc1-c1cc(C)ncc1C(=O)Nc1nc2c(s1)CN(C(=O)c1cnc(C(F)F)cc1Cl)C2 [Example 36, 2′-chloro-N-(5-(4-chloro-6-(difluoromethyl)nicotinoyl)-5,6-dihydro-4H-pyrrolo[3,4-d]thiazol-2-yl)-S′-methoxy-6-methyl-[4,4′-bipyridine]-3-carboxamide] | ≥ 10 µM |  |  |  |
|  |  | 1 to 15 nM | 0.001 to 0.1 µM | COc1cnc(Cl)cc1-c1cc(C)ncc1C(=O)Nc1nc2c(s1)CN(C(=O)c1cnc(C(F)F)nc1)C2 |  | ≥ 10 µM |  |  |
|  |  | 1 to 15 nM | 0.001 to 0.1 µM | COc1cnc(Cl)cc1-c1cc(C)ncc1C(=O)Nc1nc2c(s1)CN(C(=O)c1nccc(Cl)c1C)C2 |  | ≥ 10 µM |  |  |
|  |  | 1 to 15 nM | 0.001 to 0.1 µM | COc1ccc(C(=O)N2Cc3nc(NC(=O)c4cnc(C)cc4-c4cc(Cl)ncc4OC)sc3C2)cn1 |  | ≥ 10 µM |  |  |
| 1 to 15 nM | 0.1 to 0.25 µM |  |  | COc1cnc(Cl)cc1-c1cc(C)ncc1C(=O)Nc1nc2c(s1)CN(C(=O)c1ccc(C)cn1)C2 [Example 199] | 5 to 10 µM |  |  |  |
|  |  | 1 to 15 nM | 0.001 to 0.1 µM | COc1cnc(Cl)cc1-c1cc(C)ncc1C(=O)Nc1nc2c(s1)CN(C(=O)c1cnc(OC)c(Cl)c1)C2 |  | 5 to 10 µM |  |  |
| 1 to 15 nM | 0.001 to 0.1 µM |  |  | COc1cnc(Cl)cc1-c1cc(C)ncc1C(=O)Nc1nc2c(s1)CN(C(=O)c1ccc(C(F)F)nc1)C2 [Example 12, 2′-chloro-N-(5-(6-(difluoromethyl)nicotinoyl)-5,6-dihydro-4H-pyrrolo[3,4-d]thiazol-2-yl)-5′-methoxy-6-methyl-[4,4′-bipyridine]-3-carboxamide] | ≥ 10 µM |  |  |  |
|  |  | 1 to 15 nM | 0.001 to 0.1 µM | COc1cnc(Cl)cc1-c1cc(C)ncc1C(=O)Nc1nc2c(s1)CN(C(=O)c1ccc(OC)c(Cl)n1)C2 [Example 395, 2′-chloro-N-(5-(6-chloro-5-methoxypicolinoyl)-5,6-dihydro-4H-pyrrolo[3,4-d]thiazol-2-yl)-5′-methoxy-6-methyl-[4,4′-bipyridine]-3-carboxamide] |  | ≥ 10 µM |  |  |
| 1 to 15 nM | 0.1 to 0.25 µM |  |  | COc1cnc(Cl)cc1-c1cc(C)ncc1C(=O)Nc1nc2c(s1)CN(C(=O)c1nn(C)cc1Cl)C2 (racemic) [Example 152, (Racemic)-4-(5-Cyano-2-methoxyphenyl)-6-methyl-N-(6-(phenylamino)-4,5,6,7-tetrahydrobenzo[d]thizaol-2-yl)nicotinamide] | ≥ 10 µM |  |  |  |
| 1 to 15 nM | 0.5 to 2 µM |  |  | COc1ccncc1C(=O)N1Cc2nc(NC(=O)c3cnc(C)cc3-c3cc(Cl)ncc3OC)sc2C1 [Example 155] | ≥ 10 µM |  |  |  |
| 1 to 15 nM | 0.001 to 0.1 µM |  |  | COc1cnc(Cl)cc1-c1cc(C)ncc1C(=O)Nc1nc2c(s1)CN(C(=O)c1cc(C(F)F)ccn1)C2 [Example 94, 2′-chloro-N-(5-(4-(difluoromethyl)picolinoyl)-5,6-dihydro-4H-pyrrolo[3,4-d]thiazol-2-yl)-5′-methoxy-6-methyl-[4,4′-bipyridine]-3-carboxamide] | ≥ 10 µM |  |  |  |
| 1 to 15 nM | 0.1 to 0.25 µM |  |  | COc1cnc(Cl)cc1-c1cc(C)ncc1C(=O)Nc1nc2c(s1)CN(C(=O)c1ncccc1C(F)F)C2 [Example 158] | ≥ 10 µM |  |  |  |

Further lines, the molecule ahead of its results:

| Molecule | IC50 [1] | IC50 (DLD1 BRCA2 (−/−) cells; [2]) | IC50 ([1]; POLθ ATPase, ADP-Glo) | IC50 (DLD1 BRCA2 (−/−) cells; [3]) | IC50 (DLD1 WT cells; [2]) | IC50 (DLD1 WT cells; [3]) | IC50 (DLD1 WT cells; 7-day viability) | IC50 (DLD1 BRCA2 (−/−) cells; 7-day viability) |
| --- | --- | --- | --- | --- | --- | --- | --- | --- |
| COc1cnc(Cl)cc1-c1cc(C)ncc1C(=O)Nc1nc2c(s1)CN(C(=O)[C@H]1C[C@@H](C#N)C1)C2 [Example 190] | 1 to 15 nM | 0.25 to 0.5 µM |  |  | ≥ 10 µM |  |  |  |
| COc1cnc(Cl)cc1-c1cc(C)ncc1C(=O)Nc1nc2c(s1)CN(C(=O)[C@@H]1CCCOC1)C2 | 1 to 15 nM | 0.5 to 2 µM |  |  | ≥ 10 µM |  |  |  |
| COc1ccc(C#N)cc1-c1cc(C)ncc1C(=O)Nc1nc2c(s1)CN(C(=O)c1ccc(C)cn1)C2 [Example 304] | 1 to 15 nM | 0.1 to 0.25 µM |  |  | ≥ 10 µM |  |  |  |
| COc1ccc(C#N)cc1-c1cc(C)ncc1C(=O)Nc1nc2c(s1)CN(C(=O)C1CC(CC(F)F)C1)C2 (stereo not drawn) | 1 to 15 nM | 0.5 to 2 µM |  |  | ≥ 10 µM |  |  |  |
| COc1cnc(Cl)cc1-c1cc(C)ncc1C(=O)Nc1nc2c(s1)CN(C(=O)[C@H]1CC[C@@H](OC)CC1)C2 [Example 48, 2′-chloro-5′-methoxy-N-(5-((1s,4s)-4-methoxycyclohexane-1-carbonyl)-5,6-dibydro-4H-pyrrolo[3,4-d]thiazol-2-yl)-6-methyl-[4,4′-bipyridine]-3-carboxamide] | 1 to 15 nM | 0.001 to 0.1 µM |  |  | ≥ 10 µM |  |  |  |
| COc1ncc(Cl)cc1-c1cc(C)ncc1C(=O)Nc1nc2c(s1)CN(C(=O)c1ccccn1)C2 [Example 118] | 1 to 15 nM | 0.001 to 0.1 µM |  |  | 2 to 5 µM |  |  |  |
| COc1ccccc1-c1cc(C)ncc1C(=O)Nc1nc2c(s1)CN(C(=O)c1ccccc1)CC2 | ≥ 900 nM | 0.5 to 2 µM |  |  | 0.5 to 2 µM |  |  |  |
| COc1cn2cncc2cc1-c1cc(C)ncc1C(=O)Nc1nc2c(s1)CN(C(=O)c1ccc(C(F)F)cn1)C2 [Example 117] | 1 to 15 nM | 0.001 to 0.1 µM |  |  | ≥ 10 µM |  |  |  |
| COc1ccc(C#N)cc1-c1cc(C)ncc1C(=O)Nc1nc2c(s1)CN(C(=O)c1cccnc1OC)C2 (racemic) [Example 127] | 1 to 15 nM | 0.001 to 0.1 µM |  |  | ≥ 10 µM |  |  |  |
| COc1cnc(Cl)cc1-c1cc(C)ncc1C(=O)Nc1nc2c(s1)CN(C(=O)c1nn(C)c3c1CCC3)C2 [Example 47, 2′-chloro-5′-methoxy-6-methyl-N-(5-(1-methyl-1,4,5,6-tetrahydrocyclopenta[c]pyrazole-3-carbonyl)-5,6-dihydro-4H-pyrrolo[3,4-d]thiazol-2-yl)-[4,4′-bipyridine]-3-carboxamide] | 1 to 15 nM | 0.001 to 0.1 µM |  |  | 5 to 10 µM |  |  |  |
| COc1cnc(Cl)cc1-c1cc(C)ncc1C(=O)Nc1nc2c(s1)CC(Nc1ccccc1)CC2 (stereo not drawn) | 1 to 15 nM | 0.1 to 0.25 µM |  |  | ≥ 10 µM |  |  |  |
| COc1ccc(C#N)cc1-c1cc(C)ncc1C(=O)Nc1nc2c(s1)CN(C(=O)[C@H]1C[C@@H](OC)C1)C2 | 1 to 15 nM | 0.5 to 2 µM |  |  | ≥ 10 µM |  |  |  |
| COc1ccc(C#N)cc1-c1cc(C)ncc1C(=O)Nc1nc2c(s1)CN(S(=O)(=O)NC1CC1)C2 | 1 to 15 nM | ≥ 2 µM |  |  | ≥ 10 µM |  |  |  |
| COc1ccc(C#N)cc1-c1cc(C)ncc1C(=O)Nc1nc2c(s1)CN(S(=O)(=O)N1CCOCC1)C2 | 1 to 15 nM | ≥ 2 µM |  |  | ≥ 10 µM |  |  |  |
| 2′-chloro-N-(5-(6- (difluoromethoxy)nicotinoyl)-5,6- dihydro-4H-pyrrolo[3,4-d]thiazol-2-yl)- 5′-methoxy-6-methyl-[4,4′-bipyridine]- 3-carboxamide [Example 32] | 1 to 15 nM |  |  |  |  |  | 2 to 5 µM | 0.001 to 0.1 µM |
| COc1ccc(C#N)cc1-c1cc(C)ncc1C(=O)Nc1nc2c(s1)CN(C(=O)C1CCCCC1)C2 | 1 to 15 nM | 0.5 to 2 µM |  |  | ≥ 10 µM |  |  |  |
